Reference: patent US20260125375A1 (Pfizer Inc., priority 2022, published 2026)
Read-outs that look alike come from different tables or passages of the source.

Key:
CBL-B (residues 36-427) = biological target: T1, CBL-B (residues 36-427) (Homo sapiens, UniProt Q13191); assay: Ligand Displacement Assay (LDA), HTRF competitive binding against BODIPY-labeled fluorescent tracer, CBL-B; conditions: geometric mean of the number of tests, read-out: CBL-B Ki (nM) GMean
T1 construct: Purified CBL-B (residues 36-427) and C-CBL (residues 46-435) proteins from baculovirus-infected insect cells; made in house; host or cells: baculovirus-infected insect cells
Method in brief: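 Insect-cell (baculovirus) protein, N-term AviTag biotinylated via BirA, captured by SA-Tb; BODIPY tracer, KD measured per protein. 3-fold serial dilutions, duplicate, […], 2% DMSO final. Ki (nM) = geomean of runs.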

CBL-B = biological target: T2, CBL-B (Homo sapiens, UniProt Q13191); assay: Jurkat HiBit-IL2 assay (c-CBL KO), reporter cell line expressing CBL-B only; format: cell-based; conditions: geometric mean, read-out: C-CBL KO EC50 (nM) GMean
T2 construct: endogenous in cells; host or cells: Jurkat HiBit-IL2 reporter cells, C-CBL knocked out by CRISPR
Method in brief: (§1)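 IL-2 secretion was measured by HiBiT luminescence after 1 h compound exposure (0.1% DMSO) and 4 h TCR/CD28 stimulation (final anti-CD3 1 μg/ml, anti-CD28 2 μg/ml, 37 °C) of Jurkat reporters lacking c-CBL or CBL-B. EC50 came from fold-of-effect versus stimulated-only cells, as geometric means across tests.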

C-CBL = biological target: T3, C-CBL (Homo sapiens, UniProt P22681); assay: Jurkat HiBit-IL2 assay (CBL-B KO), reporter cell line expressing C-CBL only; format: cell-based; conditions: geometric mean, read-out: CBL-B KO EC50 (nM) GMean
T3 construct: endogenous in cells; host or cells: Jurkat HiBit-IL2 reporter cells, CBL-B knocked out by CRISPR
Method in brief: as §1

[1] = c-CBL KO (CBL-B only), anti-CD3/anti-CD28 stimulation 4 hours, Table 16a
[2] = CBL-B KO (C-CBL only), anti-CD3/anti-CD28 stimulation 4 hours, Table 16a
[3] = C-CBL KO (expressing CBL-B only), Table 16b (further repetition)
[4] = CBL-B KO (expressing C-CBL only), Table 16b (further repetition)

CC(NC1CNC1)c1nc(C(F)(F)F)cc2c(-c3cccc(C4(Cc5nncn5C)COC4)c3)n[nH]c12 (single isomer, unassigned) [Example C27, N-{(1ξ)-1-[3-(3-{3-[(4-methyl-4H-1,2,4-triazol-3-yl)methyl]oxetan-3-yl}phenyl)-5-(trifluoromethyl)-1H-pyrazolo[3,4-c]pyridin-7-yl]ethyl}azetidin-3-amine]
Ki (CBL-B (residues 36-427)): 31.4 nM | EC50 (CBL-B; [1]): > 1290 nM | EC50 (C-CBL; [2]): > 4300 nM

C[C@@H](N[C@H]1CC[C@@H]1O)c1nc(C(F)(F)F)cc2c(-c3cccc([C@H](c4nncn4C)C4CCC4)c3)n[nH]c12 (single isomer, unassigned) [Example D22]
Ki (CBL-B (residues 36-427)): 0.8 nM | EC50 (CBL-B; [3]): 12 nM | EC50 (CBL-B; [1]): 5 nM | EC50 (C-CBL; [2]): 79 nM | EC50 (C-CBL; [4]): 91 nM

C[C@H](NC1CC[C@H]1O)c1nc(C(F)(F)F)cc2c(-c3cccc([C@H](c4nncn4C)C4CCC4)c3)n[nH]c12 (single isomer, unassigned) [Example D30]
Ki (CBL-B (residues 36-427)): 0.6 nM | EC50 (CBL-B; [3]): 10 nM | EC50 (CBL-B; [1]): 3 nM | EC50 (C-CBL; [2]): 43 nM | EC50 (C-CBL; [4]): 52 nM

C[C@@H](c1nc(C(F)(F)F)cc2c(-c3cccc(C4(Cc5nncn5C)COC4)c3)n[nH]c12)N1CC[C@@H](F)C1 (single isomer, unassigned) [Example D9]
Ki (CBL-B (residues 36-427)): 17.4 nM | EC50 (CBL-B; [1]): 627 nM | EC50 (C-CBL; [2]): 1770 nM

C[C@@H](N[C@H]1C[C@@H](O)C1)c1nc(C(F)(F)F)cc2c(-c3cccc([C@H](c4nncn4C)C4CCC4)c3)n[nH]c12 (single isomer, unassigned) [Example C37]
Ki (CBL-B (residues 36-427)): 5.3 nM | EC50 (CBL-B; [1]): 173 nM | EC50 (C-CBL; [2]): 1040 nM

C[C@@H]1CCCN([C@@H](C)c2nc(C(F)(F)F)cc3c(-c4cccc(C5(Cc6nncn6C)COC5)c4)n[nH]c23)C1 (single isomer, unassigned) [Example D13]
Ki (CBL-B (residues 36-427)): 15 nM | EC50 (CBL-B; [1]): 149 nM | EC50 (C-CBL; [2]): 539 nM

Cn1cnnc1CC1(c2cccc(-c3n[nH]c4ncc(C(F)(F)F)cc34)c2)COC1 [Example B3, 3-(3-{3-[(4-methyl-4H-1,2,4-triazol-3-yl)methyl]oxetan-3-yl}phenyl)-5-(trifluoromethyl)-1H-pyrazolo[3,4-b]pyridine]
Ki (CBL-B (residues 36-427)): 75.3 nM | EC50 (CBL-B; [1]): 1710 nM | EC50 (C-CBL; [2]): 4060 nM

C[C@@H](N[C@H]1C[C@H](O)C1)c1nc(C(F)(F)F)cc2c(-c3cccc([C@H](c4nncn4C)C4CCC4)c3)n[nH]c12 (single isomer, unassigned) [Example C92]
Ki (CBL-B (residues 36-427)): 4.4 nM | EC50 (CBL-B; [3]): 113 nM | EC50 (C-CBL; [4]): 525 nM

C[C@@H]1CCCN([C@H](C)c2nc(C(F)(F)F)cc3c(-c4cccc(C5(Cc6nncn6C)COC5)c4)n[nH]c23)C1 (single isomer, unassigned) [Example D14]
Ki (CBL-B (residues 36-427)): 42.9 nM | EC50 (CBL-B; [1]): 354 nM | EC50 (C-CBL; [2]): 2010 nM

Cn1cnnc1[C@@H](c1cccc(-c2n[nH]c3c(CN[C@H]4CCOC4)nc(C(F)(F)F)cc23)c1)C1CCC1 [Example D1, (3S)—N-{[3-{3-[(R)-cyclobutyl(4-methyl-4H-1,2,4-triazol-3-yl)methyl]phenyl}-5-(trifluoromethyl)-1H-pyrazolo[3,4-c]pyridin-7-yl]methyl}oxolan-3-amine]
Ki (CBL-B (residues 36-427)): 22.4 nM | EC50 (CBL-B; [1]): 276 nM | EC50 (C-CBL; [2]): 1890 nM

C[C@H](c1nc(C(F)(F)F)cc2c(-c3cccc(C4(Cc5nncn5C)COC4)c3)n[nH]c12)N1CCC(F)(F)C1 (single isomer, unassigned) [Example D6]
Ki (CBL-B (residues 36-427)): 4.6 nM | EC50 (CBL-B; [1]): 64 nM | EC50 (C-CBL; [2]): 235 nM

C[C@H]1CN(Cc2nc(C(F)(F)F)cc3c(-c4cccc([C@H](c5nncn5C)C5CCC5)c4)n[nH]c23)CCO1 [Example C6, 3-{3-[(R)-cyclobutyl(4-methyl-4H-1,2,4-triazol-3-yl)methyl]phenyl}-7-{[(2S)-2-methylmorpholin-4-yl]methyl}-5-(trifluoromethyl)-1H-pyrazolo[3,4-c]pyridine]
Ki (CBL-B (residues 36-427)): 25.8 nM | EC50 (CBL-B; [1]): 115 nM | EC50 (C-CBL; [2]): 807 nM
